Where two headings read alike, the source gives them in different places.
How the values were obtained:
[1] = target: T1, glutathione S-transferase (GST)-fusion human ERK2 protein (Homo sapiens, UniProt P28482); experiment: ERK2 enzyme assay (LabChip mobility shift); assay type: biochemical; conditions: 2 nM ERK2, 4.25 μM FL-Peptide 8, 43 μM ATP
T1 construct: purchased Carna Biosciences, Inc; host or cells: E. coli expression system
Outline: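 GST-tagged human ERK2 from E. coli, at 2 nM, was preincubated 15 min at room temperature with compound in Hepes pH 7.5 with MgCl2, DTT and Brij35. The reaction ran 120 min at 25 °C with 4.25 μM FL-Peptide 8 and 43 μM ATP (final). Phosphopeptide fraction was measured by mobility-shift separation to give IC50.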

human PI3Kα protein = target: T2, human PI3Kα protein (Homo sapiens, UniProt P42336); experiment: PI3Kα enzyme assay (ADP-Glo kinase assay); assay type: biochemical; conditions: 3 nM PI3Kα, 50 μM PIP2, 100 μM ATP
T2 construct: purchased Carna Biosciences, Inc; host or cells: Baculovirus expression system
T2 sequence (P42336 whole entry): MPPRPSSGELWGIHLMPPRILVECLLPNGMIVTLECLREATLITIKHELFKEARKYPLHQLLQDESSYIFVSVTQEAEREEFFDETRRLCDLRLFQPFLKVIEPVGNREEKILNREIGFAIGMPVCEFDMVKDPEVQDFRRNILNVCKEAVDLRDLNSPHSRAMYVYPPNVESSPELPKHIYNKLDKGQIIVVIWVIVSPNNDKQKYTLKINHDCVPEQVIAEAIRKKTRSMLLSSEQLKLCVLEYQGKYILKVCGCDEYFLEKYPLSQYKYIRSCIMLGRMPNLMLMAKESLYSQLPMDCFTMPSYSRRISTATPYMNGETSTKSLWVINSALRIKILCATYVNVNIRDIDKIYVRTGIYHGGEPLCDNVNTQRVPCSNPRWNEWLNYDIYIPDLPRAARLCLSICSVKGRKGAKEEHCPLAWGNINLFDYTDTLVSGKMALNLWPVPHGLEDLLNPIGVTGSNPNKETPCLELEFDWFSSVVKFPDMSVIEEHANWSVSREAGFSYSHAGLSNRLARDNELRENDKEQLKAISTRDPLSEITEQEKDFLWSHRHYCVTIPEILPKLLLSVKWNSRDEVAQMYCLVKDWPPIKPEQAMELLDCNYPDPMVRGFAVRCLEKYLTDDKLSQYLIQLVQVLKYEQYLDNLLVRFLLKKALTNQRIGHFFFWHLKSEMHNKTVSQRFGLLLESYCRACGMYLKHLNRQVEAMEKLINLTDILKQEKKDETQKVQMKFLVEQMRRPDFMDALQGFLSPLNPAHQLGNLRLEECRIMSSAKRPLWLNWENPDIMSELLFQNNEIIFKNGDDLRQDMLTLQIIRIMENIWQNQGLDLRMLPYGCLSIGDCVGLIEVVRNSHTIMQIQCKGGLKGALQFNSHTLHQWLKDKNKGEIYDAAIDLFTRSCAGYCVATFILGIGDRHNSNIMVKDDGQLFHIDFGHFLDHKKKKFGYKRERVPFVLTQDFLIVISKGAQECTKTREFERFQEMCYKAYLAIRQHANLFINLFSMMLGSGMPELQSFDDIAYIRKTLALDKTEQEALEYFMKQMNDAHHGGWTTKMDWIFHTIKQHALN
T2 sequence (P27986 whole entry partner): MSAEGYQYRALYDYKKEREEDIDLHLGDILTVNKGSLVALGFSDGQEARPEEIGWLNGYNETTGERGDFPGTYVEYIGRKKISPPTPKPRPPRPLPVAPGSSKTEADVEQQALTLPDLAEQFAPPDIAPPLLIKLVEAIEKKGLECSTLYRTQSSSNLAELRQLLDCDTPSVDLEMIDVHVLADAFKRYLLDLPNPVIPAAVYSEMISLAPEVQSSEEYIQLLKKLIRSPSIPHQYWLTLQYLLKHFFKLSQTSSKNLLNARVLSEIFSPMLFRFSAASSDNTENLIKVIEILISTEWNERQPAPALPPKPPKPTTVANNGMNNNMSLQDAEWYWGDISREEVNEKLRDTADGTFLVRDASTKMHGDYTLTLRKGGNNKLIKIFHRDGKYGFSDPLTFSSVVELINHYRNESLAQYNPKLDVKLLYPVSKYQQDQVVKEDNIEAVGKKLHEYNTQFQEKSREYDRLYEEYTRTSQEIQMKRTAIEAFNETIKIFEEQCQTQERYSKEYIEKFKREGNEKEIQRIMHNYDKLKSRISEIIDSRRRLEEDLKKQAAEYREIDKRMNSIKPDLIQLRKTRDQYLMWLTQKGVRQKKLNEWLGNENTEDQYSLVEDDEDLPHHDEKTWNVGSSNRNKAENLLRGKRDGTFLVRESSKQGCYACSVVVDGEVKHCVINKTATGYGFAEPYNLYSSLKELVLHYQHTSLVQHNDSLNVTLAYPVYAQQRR
Outline: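 Baculovirus-expressed biotinylated human PI3Kα (3 nM) preincubated 15 min with compound in Tris pH 7.5, MgCl2, BSA, then reacted 60 min at 25 °C with 50 μM PIP2 and 100 μM ATP. ADP quantified by ADP-Glo luminescence; IC50 calculated.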

[2] = IC50 class, read-out: ERK2 Inhibitory Activity
[3] = IC50 class, read-out: PI3Kα Inhibitory Activity

T1 sequence (P28482 whole entry, the tested form may be a part): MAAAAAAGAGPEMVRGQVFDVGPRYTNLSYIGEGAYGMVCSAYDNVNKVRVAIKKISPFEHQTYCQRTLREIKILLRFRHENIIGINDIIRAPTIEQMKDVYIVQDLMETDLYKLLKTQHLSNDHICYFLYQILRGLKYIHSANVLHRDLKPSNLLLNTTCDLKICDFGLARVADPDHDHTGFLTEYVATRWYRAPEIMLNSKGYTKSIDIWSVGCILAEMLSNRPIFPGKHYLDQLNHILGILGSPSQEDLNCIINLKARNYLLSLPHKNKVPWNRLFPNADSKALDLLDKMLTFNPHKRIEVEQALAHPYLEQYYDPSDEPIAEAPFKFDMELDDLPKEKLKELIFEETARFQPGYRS

Row | SMILES | IC50 [1, 2] [nM] | IC50 (human PI3Kα protein; [3]) [nM] | IC50 ([1]; read-out: ERK2, IC50) [nM] | IC50 (human PI3Kα protein; read-out: PI3Kα, IC50) [nM]
1 | O=C(NCC12CC3CC(CC(C3)C1)C2)Nc1ccc2ncc(-c3cn[nH]c3)cc2n1 [Compound 0187] | < 100 | 1000 to 10000 |  | 
2 | O=C(Nc1ccc2ncc(-c3cnn(CCCN4CCOCC4)c3)cc2n1)N[C@@H]1CCN(Cc2ccccc2)C1 [Compound 0175] | < 100 | 100 to 1000 |  | 
3 | Cn1cc(-c2cnc3ccc(NC(=O)NC4CCCC4)nc3c2)c(CO)n1 [Compound 0216] | < 100 | < 100 |  | 
4 | CN(C)CCNC(=O)C1CCN(c2cnc3ccc(NC(=O)NC4CCCC4)nc3c2)CC1 [Compound 0150] | 1000 to 10000 | 100 to 1000 |  | 
5 | Cn1cc(-c2cc3nc(NC(=O)NC4CCCC4)ccc3nc2Cl)cn1 [Compound 0225] | > 10000 | > 10000 |  | 
6 | CN1CC(Cn2cc(-c3cnc4ccc(NC(=O)NC5CCCC5)nc4c3)cn2)C1 [Compound 0147] | < 100 | < 100 |  | 
7 | COCCn1cc(-c2cnc3ccc(NC(=O)NC4CCCC4)nc3c2)cn1 [Compound 0032] | < 100 | < 100 |  | 
8 | O=C(NCC1C[C@@H]2CC[C@H]1C2)Nc1ccc2ncc(-c3cnn(CCN4CCNCC4)c3)cc2n1 (stereo partly shown) [Compound 0252] | 100 to 1000 | 100 to 1000 |  | 
9 | O=C(Nc1ccc2ncc(-c3cn[nH]n3)cc2n1)NC1CCCC1 [Compound 0156] | < 100 | < 100 |  | 
10 | O=C(Nc1ccc2ncc(-c3cnn(CCCN4CC[C@H](F)C4)c3)cc2n1)NC1CCCC1 [Compound 0247] | < 100 | < 100 |  | 
11 | O=C(NCCCCc1ccccc1)Nc1ccc2ncc(-c3cnn(CCCN4CCOCC4)c3)cc2n1 [Compound 0203] | < 100 | < 100 |  | 
12 | O=C(Nc1ccc2ncc(-c3cnn(CCN4CCNCC4)c3)cc2n1)NC1CCCC1 [Compound 0051] | < 100 | < 100 | 35 | 6
13 | O=C(NCC1CCC(F)(F)CC1)Nc1ccc2ncc(-c3cnn(CCCN4CCOCC4)c3)cc2n1 [Compound 0180] | < 100 | < 100 |  | 
14 | O=C(Nc1ccc2ncc(-c3cnn(CCN4CCOCC4)c3)cc2n1)NS(=O)(=O)c1ccccc1 [Compound 0208] | > 10000 | > 10000 |  | 
15 | O=C(Nc1ccc2ncc(-c3cnn(CCCCN4C(=O)c5ccccc5C4=O)c3)cc2n1)NC1CCCC1 [Compound 0206] | 100 to 1000 | < 100 |  | 
16 | O=C(NCC1CCCOC1)Nc1ccc2ncc(-c3cn[nH]c3)cc2n1 (stereo not shown) [Compound 0190] | < 100 | 100 to 1000 |  | 
17 | CCN1CCN(CCCn2cc(-c3cnc4ccc(NC(=O)NC5CCCC5)nc4c3)cn2)CC1 [Compound 0233] | < 100 | < 100 |  | 
18 | CN1CC(n2cc(-c3cnc4ccc(NC(=O)NC5CCCC5)nc4c3)cn2)C1 [Compound 0145] | 100 to 1000 | < 100 |  | 
19 | O=C(Nc1ccc2ncc(-c3ccc(F)cc3)cc2n1)NC1CCCC1 [Compound 0020] | < 100 | 100 to 1000 |  | 
20 | O=C(Nc1ccc2ncc(-c3cn[nH]c3)cc2n1)NC1C[C@H]2CC[C@@H]1C2 (stereo partly shown) [Compound 0068] | < 100 | < 100 | 4 | 30

Row | SMILES | IC50 [1, 2] [nM] | IC50 (human PI3Kα protein; [3]) [nM] | IC50 ([1]; read-out: ERK2, IC50) [nM] | IC50 (human PI3Kα protein; read-out: PI3Kα, IC50) [nM]
21 | NC(=O)c1cnc2ccc(NC(=O)NC3CCCC3)nc2c1 [Compound 0130] | 100 to 1000 | 100 to 1000 |  | 
22 | S=C(Nc1ccc2ncc(-c3cnn(CCN4CCNCC4)c3)cc2n1)NC1CCCC1 [Compound 0222] | < 100 | < 100 |  | 
23 | O=C(Nc1ccc2ncc(Nc3cn[nH]c3)cc2n1)NC1CCCC1 [Compound 0125] | 100 to 1000 | < 100 | 324 | < 3
24 | CN1CCN(c2cnc3ccc(NC(=O)NC4CCCC4)nc3c2)CC1 [Compound 0027] | 100 to 1000 | 100 to 1000 |  | 
25 | O=C(NCCCN1CCOCC1)Nc1ccc2ncc(-c3cn[nH]c3)cc2n1 [Compound 0201] | 100 to 1000 | 1000 to 10000 |  | 
26 | O=C(Nc1ccc2ncc(-c3cccnc3)cc2n1)NC1CCCC1 [Compound 0005] | 100 to 1000 | 100 to 1000 |  | 
27 | CN(C)CCOc1cc(-c2cnc3ccc(NC(=O)NC4CCCC4)nc3c2)ccc1O [Compound 0016] | < 100 | < 100 |  | 
28 | C[C@@H](CN(C)C)Cn1cc(-c2cnc3ccc(NC(=O)NC4CCCC4)nc3c2)cn1 [Compound 0245] | 100 to 1000 | < 100 |  | 
29 | O=C(Nc1ccc2ncc(-c3cn[nH]c3)cc2n1)N[C@@H]1CC[C@H](CF)C1 [Compound 0200] | < 100 | < 100 |  | 
30 | CC(C)(C)OC(=O)N1CCN(CCCn2cc(-c3cnc4ccc(NC(=O)NC5CCCC5)nc4c3)cn2)CC1 [Compound 0211] | < 100 | < 100 |  | 
31 | O=C(Nc1ccc2ncc(N3CCS(=O)(=O)CC3)cc2n1)NC1CCCC1 [Compound 0133] | < 100 | < 100 |  | 
32 | COCCNc1cnc2ccc(NC(=O)NC3CCCC3)nc2c1 [Compound 0010] | 1000 to 10000 | < 100 |  | 
33 | O=C(Nc1ccc2ncc(-c3cnn(C4CNC4)c3)cc2n1)NC1CCCC1 [Compound 0143] | 100 to 1000 | < 100 |  | 
34 | CN1CCN(CCCn2cc(-c3cnc4ccc(NC(=O)NC5CCCC5)nc4c3)cn2)CC1 [Compound 0232] | < 100 | < 100 |  | 
35 | CCN1CCC(n2cc(-c3cnc4ccc(NC(=O)NC5CCCC5)nc4c3)cn2)CC1 [Compound 0230] | 100 to 1000 | < 100 |  | 
36 | CN(C)CCn1cc(-c2cnc3ccc(NC(=O)NC4CCCC4)nc3c2)cn1 [Compound 0018] | 100 to 1000 | < 100 |  | 
37 | O=C(Nc1ccc2ncc(-c3cnn(CC4CNC4)c3)cc2n1)NC1CCCC1 [Compound 0146] | < 100 | < 100 |  | 
38 | O=C(Nc1ccc2ncc(-c3cn[nH]c3)cc2n1)NN1CCCC1 [Compound 0204] | 100 to 1000 | 100 to 1000 |  | 
39 | Cc1n[nH]c(C)c1-c1cnc2ccc(NC(=O)NC3CCCC3)nc2c1 [Compound 0049] | < 100 | < 100 |  | 
40 | O=C(Nc1ccc2ncc(-c3ccncc3)cc2n1)NC1CCCC1 [Compound 0007] | < 100 | < 100 |  | 

Now from value to compound:

Row | IC50 [1, 2] [nM] | IC50 (human PI3Kα protein; [3]) [nM] | IC50 ([1]; read-out: ERK2, IC50) [nM] | IC50 (human PI3Kα protein; read-out: PI3Kα, IC50) [nM] | SMILES
41 | < 100 | 100 to 1000 |  |  | O=C(Nc1ccc2ncc(-c3cn[nH]c3)cc2n1)NC1CCCc2ccccc21 (stereo not shown) [Compound 0065]
42 | < 100 | < 100 |  |  | CCCCCCNC(=O)Nc1ccc2ncc(-c3cn[nH]c3)cc2n1 [Compound 0057]
43 | < 100 | < 100 |  |  | CCCCCNC(=O)Nc1ccc2ncc(-c3cn[nH]c3)cc2n1 [Compound 0094]
44 | < 100 | < 100 |  |  | CC(CCc1ccccc1)NC(=O)Nc1ccc2ncc(-c3cn[nH]c3)cc2n1 (stereo not shown) [Compound 0088]
45 | < 100 | 100 to 1000 |  |  | O=C(NCCCCc1cccc(Cl)c1)Nc1ccc2ncc(-c3cn[nH]c3)cc2n1 [Compound 0166]
46 | < 100 | 100 to 1000 |  |  | O=C(NCCCc1ccccc1)Nc1ccc2ncc(-c3cn[nH]c3)cc2n1 [Compound 0095]
47 | < 100 | < 100 |  |  | O=C(NCCCCc1ccccc1)Nc1ccc2ncc(Nc3cn[nH]c3)cc2n1 [Compound 0250]
48 | < 100 | 100 to 1000 |  |  | CCCNC(=O)Nc1ccc2ncc(-c3cn[nH]c3)cc2n1 [Compound 0055]
49 | < 100 | 1000 to 10000 |  |  | O=C(NCc1cccnc1)Nc1ccc2ncc(-c3cn[nH]c3)cc2n1 [Compound 0102]
50 | < 100 | 100 to 1000 |  |  | O=C(NCC1CCCCC1)Nc1ccc2ncc(-c3cn[nH]c3)cc2n1 [Compound 0063]
51 | < 100 | 100 to 1000 |  |  | O=C(NCC1CCOCC1)Nc1ccc2ncc(-c3cn[nH]c3)cc2n1 [Compound 0191]
52 | 100 to 1000 | 100 to 1000 |  |  | C[C@H](C[C@H](C)NC(=O)Nc1ccc2ncc(-c3cn[nH]c3)cc2n1)Oc1ccccc1 [Compound 0162]
53 | < 100 | < 100 |  |  | C[C@H](NC(=O)Nc1ccc2ncc(-c3cn[nH]c3)cc2n1)C1CCCCC1 [Compound 0079]
54 | < 100 | 100 to 1000 |  |  | O=C(NCCCCc1ccc(Cl)cc1)Nc1ccc2ncc(-c3cn[nH]c3)cc2n1 [Compound 0167]
55 | < 100 | 100 to 1000 |  |  | COc1ccc(CCCCNC(=O)Nc2ccc3ncc(-c4cn[nH]c4)cc3n2)cc1 [Compound 0173]
56 | 100 to 1000 | 100 to 1000 |  |  | C[C@@H](C[C@H](C)Oc1ccccc1)NC(=O)Nc1ccc2ncc(-c3cn[nH]c3)cc2n1 [Compound 0163]
57 | < 100 | < 100 |  |  | O=C(Nc1ccc2ncc(-c3cn[nH]c3)cc2n1)NC1CCC(Oc2ccccc2)C1 (stereo not shown) [Compound 0092]
58 | < 100 | < 100 |  |  | CC(C)C(C)NC(=O)Nc1ccc2ncc(-c3cn[nH]c3)cc2n1 (stereo not shown) [Compound 0072]
59 | < 100 | 100 to 1000 |  |  | O=C(NC[C@H]1CCCO1)Nc1ccc2ncc(-c3cn[nH]c3)cc2n1 [Compound 0192]
60 | < 100 | 100 to 1000 |  |  | O=C(NCCc1ccccc1)Nc1ccc2ncc(-c3cn[nH]c3)cc2n1 [Compound 0089]
61 | < 100 | 100 to 1000 |  |  | C[C@H](C[C@H](C)Oc1ccccc1)NC(=O)Nc1ccc2ncc(-c3cn[nH]c3)cc2n1 [Compound 0170]
62 | < 100 | < 100 |  |  | CCCCNC(=O)Nc1ccc2ncc(-c3cn[nH]c3)cc2n1 [Compound 0093]
